This note sets out measurements from ChEMBL document CHEMBL1201862, “PubChem BioAssay data set” (2004).

Broadly, the GI50 is the concentration at which growth is held to half of that of the control.

The structures appear in SMILES notation.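 Exposure lasted 48 hours, with cells grown in 96-well plates and compounds tested at five concentrations. GI50 = concentration required for 50% inhibition of growth.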 The source made the active and inactive calls. Cut-off read from the data, not from the text of the source: active = GI50 up to about 1.1 µM and inactive = higher.

Some test systems named below: T47D; ACHN; SK-OV-3; SR; MDA-N; PC-3; UACC-257; HOP-92; NCI/ADR-RES; 786-0; MDA-MB-435; MDA-MB-231; SF-268; Hs-578T; BT-549; SW-620; K562.
Common to all, as to experiment: DTP human tumour cell line panel, 48 h

`O=C(O)c1cccc(OCCO)c1`: the GI50 in the test on T47D, in the test with ACHN, in the test with SK-OV-3, in the test on SR, with MDA-N and with PC-3 was > 100 µM (inactive) throughout. Further, the GI50 in the test with UACC-257, with HOP-92, in the test with NCI/ADR-RES, in the test on 786-0, with MDA-MB-435 and with MDA-MB-231 was > 100 µM (inactive) in each case. Further, the GI50 in the test with SF-268, in the test with Hs-578T, in the test on BT-549, with SW-620 and in the test with K562 was > 100 µM (inactive) in each case.
In the case of `CC(=O)NC(CCCCNC(=O)OC(C)(C)C)C(=O)O` (centres undefined), the GI50 in the test with T47D, with ACHN, with MDA-N, in the test on PC-3, with UACC-257 and with NCI/ADR-RES was > 100 µM (inactive) in each case. Moreover, the GI50 in the test on MDA-MB-435, in the test with MDA-MB-231, with SF-268, with SW-620 and in the test on K562 was > 100 µM (inactive) throughout.
For the compound `O=C1OC(C2Cc3ccc4c(c3C2=O)CCC4)c2ccccc21` (centres undefined), the GI50 was 54.6 µM (inactive) with T47D; 38.2 µM (inactive) in the test on ACHN; > 100 µM (inactive) in the test on SK-OV-3; 38.8 µM (inactive) in the test with SR; 40.3 µM (inactive) in the test with MDA-N; 30.5 µM (inactive) in the test with PC-3. Also, the GI50 with UACC-257 is 46.8 µM (inactive); with HOP-92 it was 56.2 µM (inactive); in the test with NCI/ADR-RES it was 48.2 µM (inactive); in the test on 786-0 it was 40.7 µM (inactive); with MDA-MB-435, 40.5 µM (inactive); with MDA-MB-231, > 100 µM (inactive). Also, the GI50 in the test on SF-268 is 42.9 µM (inactive); with Hs-578T, 36.1 µM (inactive); with BT-549, 42.1 µM (inactive); with SW-620, 54.5 µM (inactive); with K562, 43.3 µM (inactive).
Take `Cc1ccc(C=C(C(=O)O)C(=O)O)o1`: the GI50 with ACHN, in the test with SK-OV-3, in the test with SR, in the test with MDA-N, in the test with PC-3 and in the test on UACC-257 was > 100 µM (inactive) in each case. For the same compound, the GI50 in the test with NCI/ADR-RES, with 786-0, in the test on MDA-MB-435, with MDA-MB-231, in the test on SF-268 and with Hs-578T was > 100 µM (inactive) each time. Besides, the GI50 with BT-549, with SW-620 and in the test with K562 was > 100 µM (inactive) in each case.
Turning to `Cn1c(=O)oc2cc(C(O)CN3CCN(Cc4ccc5c(c4)OCO5)CC3)ccc21` (centres undefined), the GI50 with T47D, with ACHN, in the test on SK-OV-3, in the test on SR, in the test with PC-3 and in the test with UACC-257 was > 100 µM (inactive) throughout. The GI50 with HOP-92, with NCI/ADR-RES, in the test with 786-0, in the test on MDA-MB-435, with MDA-MB-231 and in the test with SF-268 was > 100 µM (inactive) in each case. The GI50 with BT-549, in the test on SW-620 and with K562 was > 100 µM (inactive) throughout.
`Oc1nc2c(c(-c3ccccc3Cl)n1)COC/C2=C\c1ccccc1Cl`: the GI50 in the test on T47D, in the test with ACHN, in the test on SK-OV-3, in the test on MDA-N, with PC-3 and with UACC-257 was > 100 µM (inactive) each time. Besides, the GI50 with HOP-92, with NCI/ADR-RES, with 786-0, in the test with MDA-MB-435, in the test on MDA-MB-231 and in the test on SF-268 was > 100 µM (inactive) in each case. The GI50 with Hs-578T, with BT-549 and with SW-620 was > 100 µM (inactive) each time.
In the case of `CCCCCCCCCCCCCCCCNc1nc(=O)n(C2CC(O)C(CO)O2)cc1F` (centres undefined), the GI50 in the test with T47D is 11.7 µM (inactive); in the test on ACHN it was 0.259 µM (active); in the test with SK-OV-3, 13.5 µM (inactive); in the test on SR it was 4.01 µM (inactive); in the test on MDA-N it was 16 µM (inactive); with PC-3 it was 3.93 µM (inactive). Moreover, the GI50 is 16.7 µM (inactive) in the test on UACC-257; 10.3 µM (inactive) with HOP-92; 2.86 µM (inactive) with NCI/ADR-RES; 2.88 µM (inactive) in the test on 786-0; 12.2 µM (inactive) with MDA-MB-435; 21.7 µM (inactive) in the test on MDA-MB-231. Besides, the GI50 in the test with SF-268 was 2.93 µM (inactive); in the test with Hs-578T, 17.4 µM (inactive); with BT-549, 16.3 µM (inactive); with SW-620 it was 13 µM (inactive).
Consider `Cc1cn(C2CC(O)C(Cn3cc(Cn4nc(Br)c(=O)[nH]c4=O)nn3)O2)c(=O)[nH]c1=O` (centres undefined), for which the GI50 in the test on T47D, in the test on ACHN, in the test with SK-OV-3, in the test on MDA-N, in the test with PC-3 and in the test with UACC-257 was > 100 µM (inactive) each time. For the same compound, the GI50 in the test on NCI/ADR-RES, in the test on MDA-MB-435, in the test on MDA-MB-231, in the test on SF-268, in the test with Hs-578T and with BT-549 was > 100 µM (inactive) throughout. In addition, the GI50 with SW-620 was > 100 µM (inactive).
As for `C[N+](C)(CCO)CCN1c2ccccc2Sc2ccccc21`, the GI50 with T47D, in the test with ACHN, with SK-OV-3, in the test on SR, in the test on MDA-N and with PC-3 was > 10 µM (inactive) each time. The GI50 with NCI/ADR-RES, with MDA-MB-435, in the test with MDA-MB-231, in the test on SF-268, with Hs-578T and with SW-620 was > 10 µM (inactive) in each case. Besides, in the test on K562, the GI50 is > 10 µM (inactive).
As to `CSCCC(NOC(=O)Cc1ccccc1)P(=O)(O)c1ccccc1` (centres undefined), the GI50 in the test on T47D, in the test with ACHN, in the test with SK-OV-3, in the test with SR, in the test on MDA-N and with PC-3 was > 100 µM (inactive) each time. For the same compound, the GI50 with UACC-257, in the test on HOP-92, with NCI/ADR-RES, with MDA-MB-435, in the test on MDA-MB-231 and in the test with Hs-578T was > 100 µM (inactive) each time. For the same compound, the GI50 in the test with SW-620 and in the test on K562 was > 100 µM (inactive) in each case.
As for `CN(C)C(=O)/N=C1\SC(=N\c2ccccc2)/C(=N/c2ccccc2)N1c1ccc([N+](=O)[O-])cc1`, the GI50 in the test with T47D, with SK-OV-3, with SR, in the test with MDA-N, in the test on PC-3 and in the test with NCI/ADR-RES was > 100 µM (inactive) in each case. In addition, the GI50 in the test on MDA-MB-435 is > 100 µM (inactive); in the test on MDA-MB-231, > 100 µM (inactive); in the test with Hs-578T, 51.6 µM (inactive); in the test on BT-549 it was > 100 µM (inactive); in the test with K562, > 100 µM (inactive).
Consider `CSC1=C(SC)C(=O)c2cn(C)c(=O)cc2C1=O`, for which the GI50 in the test on T47D is 2.05 µM (inactive); in the test with ACHN, 1.81 µM (inactive); in the test on SK-OV-3, 17.5 µM (inactive); in the test with SR, < 0.0332 µM (active); in the test on MDA-N, 1.64 µM (inactive); in the test with PC-3, 9.55 µM (inactive). Moreover, the GI50 in the test with UACC-257 was 2.34 µM (inactive); with HOP-92, 0.904 µM (active); with NCI/ADR-RES, > 19.7 µM (inactive); in the test with MDA-MB-435, 1.79 µM (inactive); in the test with MDA-MB-231 it was 1.87 µM (inactive); in the test with SF-268, 11.8 µM (inactive). Also, the GI50 was 7.67 µM (inactive) in the test with Hs-578T, 2.14 µM (inactive) in the test with BT-549, 1.74 µM (inactive) with SW-620 and 0.399 µM (active) in the test with K562.
As to `CC(=O)Nc1ccc2oc(=O)c3ccccc3c2c1`, the GI50 with T47D, in the test on ACHN, with SR, with MDA-N, with PC-3 and in the test on UACC-257 was > 100 µM (inactive) throughout. In addition, the GI50 with HOP-92, in the test on NCI/ADR-RES, in the test with 786-0, in the test on MDA-MB-435, in the test with SF-268 and in the test with Hs-578T was > 100 µM (inactive) throughout. For the same compound, the GI50 in the test with BT-549, in the test with SW-620 and in the test on K562 was > 100 µM (inactive) each time.
For the compound `Nc1nc(=O)[nH]cc1F` [FLUCYTOSINE], the GI50 in the test on T47D, in the test with ACHN, with SK-OV-3, in the test with SR, in the test on MDA-N and in the test on PC-3 was > 100 µM (inactive) each time. Moreover, the GI50 was 24 µM (inactive) in the test with UACC-257; > 100 µM (inactive) in the test on HOP-92; > 100 µM (inactive) with NCI/ADR-RES; > 100 µM (inactive) in the test with 786-0; > 100 µM (inactive) in the test with MDA-MB-435; > 100 µM (inactive) with SF-268. The GI50 in the test with Hs-578T, in the test on BT-549, with SW-620 and in the test with K562 was > 100 µM (inactive) in each case.
